From article PMC10754035 (Cancer Research Communications, 2023)
Where two headings read alike, the source gives them in different places.

Columns and labels:
KRAS G12D [1] = target: T1, KRAS G12D (Homo sapiens, UniProt P01116, G12D); parameters: method as in PMID 31332011; conditions: ITC; cited from earlier work
T1 construct: Human His-tagged KRAS4B (1-169) G12D, G12V and G12C were custom synthesized; 6His (pET-28a(+)-TEV vector) (N); host or cells: E. coli BL21 star (DE3)

[2] = target: T2, GTP-KRAS G12D binding to GST-RBD (Homo sapiens, UniProt P01116, G12D); test: KRAS G12D/GST-RBD pulldown assay; assay type: biochemical; conditions: for IC50: GST pulldown, Fig. 2 legend, read-out: IC50, inhibition of GTP-KRAS G12D/GST-RBD binding
T2 construct: Human His-tagged KRAS4B (1-169) G12D, G12V and G12C were custom synthesized; Addgene (GST-RBD) Addgene 13338; host or cells: E. coli BL21 star (DE3)
Protocol: For pulldown experiment, KRAS G12D was preloaded with either GTP or GDP as described above. GDP- or GTP-bound KRAS G12D proteins (250 nmol/L in 100 µL) were then incubated with indicated compound at 37°C for 15–16 minutes. GST-RBD (final 500 nmol/L) was then added and the mixture rocked at 37°C for 1 hour. Pierce glutathione agarose beads (Thermo Fisher Scientific; 20 µL) were then added and the mixture rocked at 37°C for 1 hour. The beads were then washed and the samples were processed for SDS-PAGE and Western blotting with respective antibodies to check the interaction between KRAS-GTP and GST-RBD proteins in presence or absence of the compounds. All the protein dilutions and washes were carried out in a buffer containing 25 mmol/L Tris (pH 7.5), 100 mmol/L NaCl, 5 mmol/L MgCl2, 1% NP-40, 5% glycerol, and 0.1 mmol/L DTT.
Expression and purification of GST-RBD: The Raf1-GST-RBD in pGEX-2T vector in DH5α cells was obtained from Addgene (Raf1 GST RBD 1-149, Plasmid catalog # 13338). GST-RBD plasmid DNA was transformed in BL21*(DE3) bacteria, streaked on agar plate to obtain the colonies . A distinct colony was picked and grown in ampicillin selection media to OD600 of around 0.6-0.8 before induction with IPTG (0.5 mM). Bacterial pellet was resuspended with lysis buffer (50 mM Tris HCL (pH 7.5), 150 mM NaCl, 0.5% Triton X-100, 5 mM MgCl2, 1 mM DTT, 10% Glycerol, 3 mM β-mercaptoethanol) and homogenized. The homogenized lysate was centrifuged at 14000 rpm at 4 °C for 40 min and the resulting supernatant was collected and filtered. The filtered supernatant was incubated with glutathione agarose (Pierce^TM) beads (Thermo Scientific, USA) at 4 °C for 60 min. After incubation, beads and lysate suspension was passed through Bio-Rad Econo column. The beads were washed using lysis buffer (as described above), and the GST-RBD eluted with elution buffer (50 mM Tris HCL (pH 7.5), 150 mM NaCl, 0.5% Triton X-100, 5 mM MgCl2, 1 mM DTT, 10% Glycerol, 10 mM Glutathione). Eluted GST-RBD protein fractions were buffer exchanged into 25 mM Tris (pH 7.5), 150 mM NaCl, 0.5 mM DTT and 5 mM MgCl2 buffer and stored at -80°C.
GTP and GDP nucleotide exchange for GST-RBD pull down: KRAS protein was exchanged with GTP (Sigma, USA) and GDP (Sigma, USA) using EDTA- loading procedure. The RAS proteins (235 µM final) were incubated with ~40-fold molar excess of EDTA (10 mM final), and ~45-fold molar excess of either GDP or GTP for 90 min at 37°C. After incubation, the sample was kept on ice for 10 minutes before incubating with ice-cooled 1M MgCl2 (65 mM final) for 20 minutes to stop the reaction. To remove excess unbound nucleotide, EDTA and magnesium, the proteins were re-buffered using PD10 columns (GE Life Sciences) into (25 mM Tris (pH 7.5), 150 mM NaCl, 0.5 mM DTT and 5 mM MgCl2) buffer and concentrated using Millipore spin ultrafiltration devices (10,000 Da cut off, 4,000 x g). The protein concentration was measured using Pierce Rapid GOLD BCA Protein Assay Kit (Thermo Scientific, USA) and aliquots were stored in -80°C.

KRAS G12D [3] = target: T1, KRAS G12D; test: Isothermal titration calorimetry, KRAS G12D; assay type: binding; conditions: ITC, KRAS G12D-NE (non-exchanged), 25°C
Protocol: All isothermal titration calorimetry (ITC) experiments were carried out at 25°C on a MicroCal PEAQ ITC Automated (Malvern). […] The final ITC buffer in the syringe and the cell was 25 mmol/L Tris HCl (pH 8.0), 100 mmol/L NaCl, 0.1 mmol/L DTT, 5% glycerol, 1% NP40, 5 mmol/L MgCl2, and 5% DMSO. ITC titration experiments were carried out with 19 injections, 2 µL per injection, and 150 seconds spacing between each injection. Reference cell power was set to 5 µcal/second and stirring speed was 750 rpm. Data were analyzed using a one site binding model with the Malvern analysis software. All ITC experiments were performed at the biophysical facility at the Institute for Structural Biology, Drug Discovery and Development (ISB3D) at Virginia Commonwealth University (Richmond, VA) and the Massey Cancer Center.
Expression and purification of RAS proteins: Human His-tagged KRAS4B (1-169) G12D, G12V and G12C were custom synthesized and cloned into pET-28a(+)-TEV vector to generate pET-28a(+)-6His-KRAS (1-169) plasmids by GenScript USA Inc., Piscataway, NJ. The proteins were expressed and purified as described below. The full length biotinylated human KRAS4B G12D (His6-MBP-tev-Avi-Hs.KRAS4b G12D (2-188) protein was obtained from Dr Dominic Esposito and Dr. William Gillette from the NCI RAS Initiative at the Frederick National Laboratory. Avi-KRAS4b (2-188) G12D was cloned, expression and purified as described previously (1,2).
Expression and purification of KRAS proteins: BL21 star (DE3) competent cells were transformed with pET-28a(+)-6His-KRAS (1-169) plasmids from GenScript, and the resulting colonies were picked under kanamycin selection. The colonies were grown in LB broth and induced with 0.5mM IPTG for 4 hours when OD reached 0.6-0.8. Bacteria pellets were lysed in 25mM Tris HCL (pH7.8) buffer containing 300mM NaCl, 5mM MgCl2, 10mM Imidazole, 5% Glycerol and 3mM β-mercaptoethanol. Membrane filter-cleared lysate supernatants were incubated with HisPur Ni-NTA resin (Thermo scientific) in an oscillating platform at 4°C for 50 minutes. Econo disposable column (Bio-Rad) was used for washing the beads 3 times with 25mM Tris HCl (pH7.8), 300mM NaCl, 5mM MgCl2, 5% Glycerol buffer with 10mM, 20mM and 30mM Imidazole, respectively. Elution was carried with 25mM Tris HCl (pH7.8), 300mM NaCl, 5mM MgCl2, 5% Glycerol and 500mM Imidazole buffer. After confirming the eluted fraction purity on SDS-PAGE gel, proteins fractions were further purified using HiLoad 16/600 superdex 75 PG column in AKTA system. Protein was eluted in 25mM Tris HCL (pH7.8), 150mM NaCl, 5mM MgCl2 and 0.5mM DTT. KRAS protein aliquots were stored in -80°C.
GCP and NH-GDP nucleotide exchange for ITC: KRAS G12D protein in 25 mM Tris HCL (pH 8.0), 1 mM Calcium Chloride Dihydrate and 200 mM (NH4)2SO4 buffer was added to alkaline phosphatase beads (Sigma, USA) (2U per mg of KRAS) and to non-hydrolysable nucleotide analogs, GCP (β,γ-Methyleneguanosine 5′-triphosphate sodium salt, Sigma, USA) or GDP-NH (Guanosine 5′-[β-thio]diphosphate trilithium salt, Sigma, USA) in molar ratio of 10:1 (Nucleotide:KRAS). The reaction mixture was incubated with gentle rotation for 14-18 hrs at 4 °C. After incubation, the mixture was centrifuged at 1500 g, 4°C to remove the alkaline phosphatase beads. MgCl2 (20 mM) and an additional amount of GCP or NH-GDP in molar ratio of 5:1 (Nucleotide:KRAS) were added, and incubated at room temperature for 1 hr. After incubation, nucleotide exchanged protein was desalted and buffer exchanged at 4 °C using PD-10 column (Catalog # 17085101, GE Healthcare, USA), into a final buffer containing 25 mM Tris HCL (pH 7.5), 150 mM NaCl, 5 mM MgCl2 and 0.5 mM DTT. Buffer exchanged protein was concentrated using Amicon ultra centrifugal filter-10K cut off (Catalog # UFC501024, MilliporeSigma, USA). The protein concentration was measured using Pierce Rapid GOLD BCA Protein Assay Kit (Thermo Scientific, USA) and aliquots were stored in -80°C.

T1 sequence (P01116 1-169 isoform P01116-2 G12D): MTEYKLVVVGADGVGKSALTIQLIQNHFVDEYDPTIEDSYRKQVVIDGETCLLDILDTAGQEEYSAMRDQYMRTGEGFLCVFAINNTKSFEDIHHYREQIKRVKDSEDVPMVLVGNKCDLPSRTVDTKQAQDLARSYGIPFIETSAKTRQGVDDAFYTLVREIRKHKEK
T2 sequence (P01116 1-169 isoform P01116-2 G12D): as above

For `Cn1cnc(Cn2ccc3ccc(CNCc4[nH]c5ccccc5c4[C@H]4NC(=O)c5ccc(O)cc54)cc32)c1` [BI-2852], the Kd (KRAS G12D [1]) is given as 0.74 µM.
Molecule `C=C1C[C@]23C[C@@]1(O)CC[C@H]2[C@@]12C=CC(=O)[C@@](C)(C(=O)O1)[C@H]2[C@@H]3C(=O)NCc1ccccc1` [IIA-15D] has an IC50 [2] of 10.8 µM and a Kd (KRAS G12D [3]) of 11.6 µM.
Molecule `COC(=O)C1C2C3(C)C(=O)C=CC2(OC3=O)C2CCC3(CI)CC12CC3=O` (centres unmarked) [IB-21G] has an IC50 [2] of 0.36 µM and a Kd (KRAS G12D [3]) of 0.641 µM.
For `C=C1C[C@]23C[C@@]1(OC(C)=O)CC[C@H]2[C@@]12C=CC(=O)[C@@](C)(C(=O)O1)[C@H]2[C@@H]3C(=O)OC` [IB-21J], the “loss of potency relative to KRB-456” value ([2]; GST pulldown IC50) was “about 10 fold”, the IC50 [2] was 2.02 µM and the Kd (KRAS G12D [3]) was 4.81 µM.
